The molecules below were run against PRMT5:MEP50 (Homo sapiens, UniProt O14744) (assay: PRMT5:MEP50 Flashplate Assay). Settings: PRMT5:MEP50 inhibitory activity, 3H-SAM FlashPlate, class symbol.
PRMT5:MEP50, sequence (O14744 whole entry, species assumed): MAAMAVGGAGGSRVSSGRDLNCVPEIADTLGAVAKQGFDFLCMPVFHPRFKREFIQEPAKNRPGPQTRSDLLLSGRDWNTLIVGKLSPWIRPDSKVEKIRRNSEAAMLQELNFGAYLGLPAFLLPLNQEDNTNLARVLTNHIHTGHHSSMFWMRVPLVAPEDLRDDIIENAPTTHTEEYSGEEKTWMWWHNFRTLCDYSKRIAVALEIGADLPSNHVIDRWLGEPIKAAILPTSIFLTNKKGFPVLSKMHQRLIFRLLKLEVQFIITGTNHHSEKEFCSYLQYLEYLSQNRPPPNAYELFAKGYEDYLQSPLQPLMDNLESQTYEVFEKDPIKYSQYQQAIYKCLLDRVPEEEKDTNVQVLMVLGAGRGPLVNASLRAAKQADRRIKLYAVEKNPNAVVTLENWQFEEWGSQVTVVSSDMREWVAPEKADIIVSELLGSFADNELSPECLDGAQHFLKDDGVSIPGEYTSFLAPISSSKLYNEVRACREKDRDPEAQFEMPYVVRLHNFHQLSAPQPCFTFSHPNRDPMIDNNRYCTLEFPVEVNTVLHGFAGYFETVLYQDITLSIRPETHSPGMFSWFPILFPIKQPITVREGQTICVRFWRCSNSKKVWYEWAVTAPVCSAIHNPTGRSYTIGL
PRMT5:MEP50, sequence (Q9BQA1 whole entry partner, species assumed): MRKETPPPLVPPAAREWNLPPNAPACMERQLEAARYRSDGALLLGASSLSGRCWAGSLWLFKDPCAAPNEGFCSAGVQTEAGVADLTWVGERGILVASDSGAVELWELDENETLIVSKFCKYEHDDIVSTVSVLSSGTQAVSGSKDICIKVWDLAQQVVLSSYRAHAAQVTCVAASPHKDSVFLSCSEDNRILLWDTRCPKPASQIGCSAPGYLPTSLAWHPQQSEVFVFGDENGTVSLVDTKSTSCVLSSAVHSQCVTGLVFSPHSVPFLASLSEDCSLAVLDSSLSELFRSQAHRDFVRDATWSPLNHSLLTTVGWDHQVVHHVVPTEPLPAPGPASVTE
Type: biochemical
Description: Ten-point curves of inhibitor compounds were made using serial threefold dilutions in DMSO (the final top concentration of compound was 10 μM, 1% DMSO). Reaction mixture consisting of 50 mM Tris-HCl (pH 8.5), 0.002% Tween20, 0.005% BSA (Bovine Serum Albumin), 1 mM TCEP, and 1% DMSO. Substrates are freshly prepared in reaction buffer. PRMT5:MEP50 was then added into substrate solution and mixed gently. Inhibitor compound was then added and incubated for 30 min at room temperature. ^3H-SAM was added to initiate the reaction. Reactions were incubated for 2 h at room temperature and quenched with 0.5 mM SAM (S-adenosyl-L-Methionine) in assay buffer. An aliquot of the reaction mix was transferred to a streptavidin-coated 384-well FlashPlate (PerkinElmer). After an incubation time of 1 h, the plate was washed and then read on a TopCount (PerkinElmer) to measure the amount of tritium incorporated into the peptide substrate. IC50 was calculated using conventional curve-fitting method.
Molecule Cn1c(N)nc2cc(CC[C@H]3C[C@@H](n4ccc5c(N)ncnc54)[C@H](O)[C@@H]3O)ccc2c1=O [Compound 1-7, 2-amino-7-(2-((1S,2R,3S,4R)-4-(4-amino-7H-pyrrolo[2,3-d]pyrimidin-7-yl)-2,3-dihydroxycyclopentyl)ethyl)-3-methylquinazolin-4(3H)-one] has an IC50 of under 1 nM.
Work on C[C@H]1COc2cc3ccc(CC[C@H]4C[C@@H](n5ccc6c(N)ncnc65)[C@H](O)[C@@H]4O)cc3nc2N1 [Compound 1-8, (1R,2S,3R,5S)-3-(4-amino-7H-pyrrolo[2,3-d]pyrimidine-7-yl)-5-(2-((S)-3-methyl-3,4-dihydro-2H-[1,4]oxazino[3,2-b]quinoline-7-yl)ethyl)cyclopentane-1,2-diol] yielded an IC50 of under 1 nM.
For C[C@@H]1COc2cc3ccc(CC[C@H]4C[C@@H](n5ccc6c(N)ncnc65)[C@H](O)[C@@H]4O)cc3nc2N1 [Compound 1-9], the IC50 was under 1 nM.
C[C@@H]1CNc2nc3cc(CC[C@H]4C[C@@H](n5ccc6c(N)ncnc65)[C@H](O)[C@@H]4O)ccc3cc2O1 [Compound 1-10] was tested, and the IC50 was under 1 nM.
C[C@H]1CNc2nc3cc(CC[C@H]4C[C@@H](n5ccc6c(N)ncnc65)[C@H](O)[C@@H]4O)ccc3cc2O1 [Compound 1-11] showed an IC50 of under 1 nM.
Nc1ncnc2c1ccn2[C@@H]1C[C@H](CCc2ccc3cc4c(nc3c2)NC(=O)CO4)[C@@H](O)[C@H]1O [Compound 1-12] showed an IC50 of under 1 nM.
In the case of Nc1ncnc2c1ccn2[C@@H]1C[C@H](CCc2ccc3cc4c(nc3c2)NCCS4)[C@@H](O)[C@H]1O [Compound 1-13], the IC50 is reported as under 1 nM.
For CN1C(N)=Nc2cc(CC[C@H]3C[C@@H](n4ccc5c(N)ncnc54)[C@H](O)[C@@H]3O)ccc2S1(=O)=O [Compound 1-14], the IC50 was under 1 nM.
Molecule CC1(C)C(N)=Nc2cc(CC[C@H]3C[C@@H](n4ccc5c(N)ncnc54)[C@H](O)[C@@H]3O)ccc2S1(=O)=O [Compound 1-15] has an IC50 of 1 to 100 nM.
CC1(C)Oc2ccc(CC[C@H]3C[C@@H](n4ccc5c(N)ncnc54)[C@H](O)[C@@H]3O)cc2N=C1N [Compound 1-16] was tested, and the IC50 was under 1 nM.
For Nc1ncnc2c1ccn2[C@@H]1C[C@H](CCc2ccc3c(=O)n(C4CC4)c(N)nc3c2)[C@@H](O)[C@H]1O [Compound 1-17], the IC50 was under 1 nM.
In the case of CC1(C)Cn2c(nc3cc(CC[C@H]4C[C@@H](n5ccc6c(N)ncnc65)[C@H](O)[C@@H]4O)ccc3c2=O)N1 [Compound 1-18], the IC50 is reported as 1 to 100 nM.
Molecule CN1C(N)=Nc2cc(CC[C@H]3O[C@@H](n4ccc5c(N)ncnc54)[C@H](O)[C@@H]3O)ccc2S1(=O)=O [Compound 2-8] has an IC50 of 1 to 100 nM.
With C[C@@H]1CNc2nc3cc(CC[C@H]4O[C@@H](n5ccc6c(N)ncnc65)[C@H](O)[C@@H]4O)ccc3cc2O1 [Compound 2-9] the IC50 was 1 to 100 nM.
For C[C@H]1CNc2nc3cc(CC[C@H]4O[C@@H](n5ccc6c(N)ncnc65)[C@H](O)[C@@H]4O)ccc3cc2O1 [Compound 2-10], the IC50 was 1 to 100 nM.
CC1(C)C(N)=Nc2cc(CC[C@H]3O[C@@H](n4ccc5c(N)ncnc54)[C@H](O)[C@@H]3O)ccc2S1(=O)=O [Compound 2-11] gave an IC50 of 1 to 100 nM.
Work on CC1(C)Oc2ccc(CC[C@H]3O[C@@H](n4ccc5c(N)ncnc54)[C@H](O)[C@@H]3O)cc2N=C1N [Compound 2-12] yielded an IC50 of under 1 nM.
Work on Nc1nc2cc(CCC[C@H]3C[C@@H](n4ccc5c(N)ncnc54)[C@H](O)[C@@H]3O)ccc2cc1Br [Compound 3-7] yielded an IC50 of 1 to 100 nM.
Work on Nc1ncnc2c1ccn2[C@@H]1C[C@H](CCc2ccc3cc4c(nc3c2)NC(=O)CS4)[C@@H](O)[C@H]1O [Compound 4-3] yielded an IC50 of under 1 nM.

From patent US20200369667A1, “HETEROCYCLIC COMPOUNDS AS PRMT5 INHIBITORS” (ANGEX PHARMACEUTICAL, INC., priority 2017, published 2020)
